{"source": "patent US20110201869A1", "about": "“METHOD AND APPARATUS FOR ENHANCED TRANSDERMAL DIFFUSION” (OBJ LIMITED, priority 2008, published 2011)", "key": {"[1]": {"experiment": "Methyl Nicotinate Laser-Doppler vasodilation model (transdermal delivery in vivo)", "design": "species or system human", "text": "FIG. 7 depicts the enhancing effects of the present invention on the delivery of Methyl Nicotinate through human skin in vivo. The Methyl Nicotinate Laser-Doppler vasodilation model was used (see Hollaway et al, J. Invest Dermatol 69:306-309, 1977; Wester et al., J. Invest Dermatol 83:515-517, 1984). […] In short, successful transdermal delivery of the rubifacient Methyl Nicotinate through the skin results in pronounced vasodilation, increased perfusion and erythema. […] The Methyl Nicotinate induced vasodilation can be measured using a non-invasive Laser Doppler Flow or Perfusion meter with data being provided as a numeric value equitable to local in vivo blood perfusion. The present experiment involved the saturation of 4 cm^2 tissue paper units with Methyl Nicotinate (5 mmolar in PBS). The Methyl Nicotinate tissues were applied to the skin of the volar forearm. The present invention (4 cm^2) and the passive surrogate units were placed over the Methyl Nicotinate soaked paper units. For 5 minutes one active and one passive unit were applied adjacently onto the skin of the forearm. Subsequently, all materials were removed from the skin and the skin was patted dry. Laser Doppler perfusion probes (Moor Instruments Laser Doppler Perfusion Meter) were placed over both areas and blood perfusion rates were monitored for a 30 minute period. […]"}, "[2]": {"experiment": "in vitro Franz Cell diffusion study through excised epidermis", "assay_type": "in vitro ADME, piglet", "description": "FIG. 4 is a plot of the substance Tetracaine through excised piglet ear epidermis in an in vitro Franz Cell diffusion study. Epidermal membranes were obtained by heat separation (60 sec at 60° C., Kligman and Christophers 1963). Skin integrity was determined by conductance measurement before the experiment. Skin sections from each ear were matched over the groups per experiment. Epidermal membranes were placed between the donor and receptor compartments of Franz-type diffusion cells with the stratum corneum facing the donor chamber. The epidermal membranes were equilibrated with the receptor solution (USP PBS, pH 7.4) for 30 min. The receptor compartment of the cell was immersed in a water bath at 37±0.5° C., and stirred every 5 min throughout the experiment. After equilibration, the donor solution consisting of 1 mL of 2 (FIG. 4a) or 4% Tetracaine HCL (FIG. 4B; Sigma) in PBS was added, and the present invention was suspended 3 mm above the surface of the donor fluid (i.e. 8 mm above the epidermal surface). The passive diffusion cells received the same donor drug concentration and were covered with parafilm only, i.e. no material of the present invention was applied. The administration period was 0-1 hr. Samples of the receptor solution were removed and replaced with fresh buffer over a 60 minute period. All samples were analysed for Tetracaine hydrochloride content by spectrophotometric detection (absorbance at 229 nm). The cumulative amount of Tetracaine hydrochloride in the receptor compartment versus time was plotted for both experiments. After the diffusion experiment the skin, still fixed in the diffusion chamber, was stained with standard HE dye. The diffusion area was investigated under a microscope for the occurrence of damage to the skin. Data derived from epidermis with low skin integrity was excluded from analysis and graphical depiction.\nFIG. 5 is a plot of the substance Sumatriptan through excised piglet ear epidermis in an in vitro Franz Cell diffusion study. […] All samples were analysed for Sumatriptan content by spectrophotometric detection (absorbance at 285 nm). […]"}}, "data": [{"smiles": "COC(=O)c1cccnc1", "note": "[Methyl Nicotinate]", "values": [{"measurement": "delivery through human skin in vivo with the present invention compared with passive diffusion (blood perfusion by Laser Doppler)", "setting": "[1]; 5 mmolar in PBS, 5 minutes application on volar forearm, perfusion monitored 30 minutes, FIG. 7", "value": "effective at enhanced delivery"}, {"measurement": "diffusion with 480 gauss / 300 poles per meter versus 120 gauss / 500 poles per meter device", "setting": "[1]; 2 milli-molar, human forearm skin in vivo, FIG. 8", "value": "similar"}]}, {"smiles": "CNS(=O)(=O)Cc1ccc2[nH]cc(CCN(C)C)c2c1", "note": "[Sumatriptan]", "values": [{"measurement": "diffusion through excised epidermis under the influence of the present invention compared to passive diffusion", "setting": "[2]; Sumatriptan succinate 2 mg/ml donor, 0-30 min, FIG. 5", "value": "enhanced diffusion"}]}, {"smiles": "CCCCNc1ccc(C(=O)OCCN(C)C)cc1", "note": "[Tetracaine]", "values": [{"measurement": "diffusion through excised epidermis under the influence of the present invention compared to passive diffusion", "setting": "[2]; 2% Tetracaine HCL in PBS donor, 0-1 hr, magnetic device suspended 8 mm above epidermal surface, FIG. 4A", "value": "enhanced diffusion"}, {"measurement": "diffusion through excised epidermis under the influence of the present invention compared to passive diffusion", "setting": "[2]; 4% Tetracaine HCL in PBS donor, 0-1 hr, magnetic device suspended 8 mm above epidermal surface, FIG. 4B", "value": "enhanced diffusion"}]}]}
